Test results taken from patent US9701667B2, “Coumarin-based fluorogenic agents and uses thereof for specific protein labelling” (UNIVERSITY OF OTTAWA, priority 2014, dated 2017).
Entries after “also recorded” stand apart in the source; their conditions may differ.

Legend:
dC10α-actin = target: T1, dC10α-actin (Homo sapiens, UniProt P60709); assay: No-wash intracellular labelling of dC10α-actin in HEK 293T cells; format: cell-based; conditions: 10 μM YC20, 45 min
T1 construct: expressed in transfected cells; host or cells: HEK 293T
Description: (§1) The no-wash fluorogenic labelling reagent YC20 was used to label cellular proteins localized in different parts of living HEK 293T cells. Histone-H2B, localized in the nuclei, and actin, localized as filaments in the cytosol, were chosen as the test proteins. […] HEK293T cells were transfected to express histone H2B-dC10α or dC10α-actin and then labeled with YC20 for 45 min and directly imaged by fluorescent microscopy without any washing steps (FIG. 13; see, also, Chen, Y. et al., Angew. Chem. Int. Ed. Engl., 2014, 53, 13785-13788, the entire contents of which are hereby incorporated by reference).
(§2) Transfection and labelling were performed as follows: HEK 293T cells were plated into 60-mm dishes and grown in MEM supplemented with 10% FBS, 100 units/mL of penicillin and 100 μg/mL of streptomycin for 16 h before transfection. Cells were transiently transfected with plasmid DNA encoding for dC10α-actin or histone H2B-dC10α or with pcDNA3.1 (mock) using lipofectamine 2000 following manufacturer's instructions. Twenty-four or forty-eight hours after transfection, the cells were incubated with 10 μM YC20 (in Opti-MEM with 0.2% DMSO) for 45 min at 37° C. Cells were observed and imaged on a Nikon confocal microscope with a 25× objective. Images were taken and analyzed with NIS-Elements software.

MBP-dC10α [1] = assay: Time-dependent fluorescence increase on reaction with test protein; format: biochemical; conditions: MBP-dC10 versus GSH
Description: (§3) Reactivity was tested through the time-dependent fluorescence increase at 37° C. using Synergy H4 Hybrid Multi-Mode Microplate Reader with excitation and emission monochromators set to 9 nm bandpass. All reactions were prepared in 50 mM HEPES buffer (pH 7.4) with 5% DMSO. Solutions of MBP-dC10α or GSH were prepared in 96-well plates and labelling reagent (YCx) in DMSO was added immediately before recording. The final concentration of labelling reagent was 25 μM, the final concentration of MBP-dC10α was 25 μM and the final concentration of GSH was 50 μM or 1 mM in 50 mM HEPES buffer (pH 7.4) with 5% DMSO. Samples were excited at 440 nm and fluorescence intensity was followed at 485 nm as a function of time.

histone H2B-dC10α [2] = assay: No-wash intracellular labelling of histone H2B-dC10α in HEK 293T cells; format: cell-based, human; conditions: 10 μM YC20, 45 min
Description: as §1, §2

HEK293T cells = assay: MTT cytotoxicity assay; format: cell-based, human; conditions: 20 h incubation
Description: 3-(4,5-Dimethylthiazol-2-yl)-2,5-diphenyl tetrazolium bromide (MTT) is a yellow tetrazolium salt and can be reduced to formazan crystals, which are insoluble in aqueous solutions, by active mitochondria in living cells. The resulting intracellular purple formazan can be dissolved in Triton X100, and therefore quantified by measuring absorption of the solution.
Cells were seeded in a 96-well plate and incubated with 100 μL of culture medium with different amounts of the fluorogen YCx for 16 h. No fluorogen was added to the positive control and no cells were plated in the negative control. Portions of 25 μL of MTT solution (5 mg in 1 mL of Hanks' balanced salt solution) were added to the wells and the cells were further incubated at 37° C. for 4 h. Solubilization solutions (100 μL) were then added and incubated in 96-well plates at room temperature in the dark overnight. The absorption of each well was measured using a plate reader at a wavelength of 570 nm with 690 nm as a reference. Cell viability was calculated according to the following equation: Cell viability=(Awith fluorogen−Anegative control)/(Apositive control−Anegative control).

[3] = Time-dependent fluorescence increase on reaction with GSH; conditions: 25 μM fluorogen, 1 mM GSH
Description: as §3

histone H2B-dC10α [4] = assay: Intracellular labelling of histone H2B-dC10α in HeLa cells; format: cell-based, human; conditions: 10 μM YC20, 10 minutes
Description: HeLa cells were transfected with plasmid DNA encoding histone H2B-dC10α as described below and labelled with 10 μM YC20 for 10 minutes.
Transfection and labelling were performed as follows: HeLa cells were propagated for 2-3 weeks until the cells were stable and healthy for the transfection and labelling experiments. Cells were plated in 35 mm culture dishes (approx. 1.3×10^5 cells/plate in 2 mL of MEM or DMEM media) and incubated at 37° C. (5% CO2) for 12-16 h, after which they were transfected with the plasmid DNA encoding for the expression of histone H2B C-terminally tagged with dC10α, using 3-fold lipofectamine […] (H2B-dC10α and 6 μg of lipofectamine). For the transfections the media was changed from MEM/DMEM to OPTI-MEM and the transfection time was 45 min. The media was then changed back to MEM/DMEM and the cells were allowed to express protein for 48 h (37° C. and 5% CO2), after which the cells were treated with the corresponding fluorogen. For FlARe labelling, cells were treated with 10 μM of YC20 in 2 mL OPTI-MEM (containing 0.02% F127 and 0.2% DMSO) and incubated at 37° C. and 5% CO2 for 10 minutes.

MBP-dC10α [5] = assay: Fluorescence properties and fluorescence enhancement (FE) before/after labelling of model target protein; format: biochemical
Description: For experiments described herein, maltose-binding protein (MBP) was chosen as a highly-soluble test protein and the dC10α tag was fused to its C-terminus (MBP-dC10α) as described previously (Guy, J. et al., Mol. Biosyst. 2010, 6, 976-987).
Emission spectra and fluorescence intensity measurements were recorded at 37° C. with a Synergy H4 Hybrid Multi-Mode Microplate Reader with excitation and emission monochromators set at 9 nm bandpass. The mixture of 100 μM solution of fluorogen (YCx) and 100 μM MBP-dC10 in 50 mM HEPES buffer (pH 7.4) with 5% DMSO was incubated at 37° C. in the dark for 12 hours, after which the fluorescence emission spectrum of a dilution (25 μM final) in 50 mM HEPES buffer with 5% DMSO was recorded. The emission spectra of the corresponding labelling reagent in same solution without MBP-dC10α were also recorded. The ratio of fluorescence intensity at maximum emission gave the fluorescence enhancement (FE) ratio.

CCN(CC)c1ccc2cc(C(=O)Nc3cc(N4C(=O)C=C(OC)C4=O)cc(N4C(=O)C=C(OC)C4=O)c3)c(=O)oc2c1 [YC20, N-(3,5-bis(3-methoxy-2,5-dioxo-2,5-dihydro-1H-pyrrol-1-yl)phenyl)-7-(diethylamino)-2-oxo-2H-chromene-3-carboxamide]
fluorescence in pcDNA transfected (mock) cells (dC10α-actin; HEK 293T mock cells): negligible fluorescence | labelling of dC10α-actin (cyan channel) (dC10α-actin; HEK 293T): filament structures in the cytosol were clearly visible | selectivity of labelling target protein over GSH (MBP-dC10α [1]): most selective labelling reagent | labelling of histone H2B-dC10α (cyan channel) (histone H2B-dC10α [2]): only the nuclei were fluorescently labeled | cytotoxicity (cell viability, MTT) (HEK293T cells): neither showed any cytotoxicity up to 100 μM | reaction with high concentration (large excess) of GSH [3]: extremely slow; also recorded: did not give any fluorescence signal | labelling of histone H2B-dC10α (cyan channel) (histone H2B-dC10α [4]): nuclei were strongly fluorescently labeled | fluorescence intensity change (fluorescence enhancement) (MBP-dC10α [5]; after labelling with MBP-dC10, λex = 440 nm): 29 fold | fluorescence after the labelling reaction (MBP-dC10α [5]; after reaction with MBP-dC10α): strong fluorescence | background (intrinsic) fluorescence before labelling / quenching (MBP-dC10α [5]; fluorogen without target protein): negligible background fluorescence
